Test results: patent US20150056273A1 (National Taiwan University of Science and Technology, priority 2013, published 2015)

Key:
[1] = penetration-through experiments with different microbubble sizes, agar tissue simulator; format: in vitro ADME; settings: 1 minute, 0.25 wt % Evans blue, microbubbles 2×10^8 particles/ml
Description: The percutaneous penetration experiments with different microbubble diameters are also been made. […] A skin tissue simulator 20 is formed of 0.3 wt % agarose gel (agar gel). The mechanical oscillation wave source may be an ultrasound probe 40. The ultrasound probe 40 is mounted on the dropper rack 22 and the ultrasound probe 40 is set at a distance of about 5 mm from the tissue stimulator 20. The conductive gel 35 is disposed on the probe 40 so that the conductive gel 35 is located apart from the tissue stimulator 20 with a distance of about 3 mm. The perfusion zone 33 is placed above the tissue stimulator 20 and the conductive gel 30 is located outside of the perfusion zone 33.
And the dye for observing the penetration depth in the skin tissue simulator is Evans blue which mixed with water to form a 0.25 wt % dye solution.
The surface of the tissue stimulator is rinsed three times (1000 μl). The control group utilized the saline solution of 0.25 wt % Evans blue dye. […] After the dye placed in the perfusion zone for a predetermined time, the penetration depth of the dye of the tissue stimulator was observed by the microscope and the results were processed by MATLAB program to calculate the dye penetration depth.
In the following experiments, different parameters were changed to find the best conditions for the penetration depth of the dye. […] And each group further had three experiments with the different ultrasound energy for 1 W/cm^2, 2 W/cm^2, and 3 W/cm^2. The ultrasound applied for 1 minute.

[2] = percutaneous penetration experiments with different microbubble sizes, pigskin; format: in vitro ADME, pig; settings: microbubbles 1 minute, then dye with ultrasound 15 minutes
Description: In another experiment, the skin tissue simulator formed form the agar gel is replaced by a pigskin of 2 mm thickness. The perfusion zone was placed on the pigskin for conducting the percutaneous penetration experiments, and the experimental system and the methods were similar to the penetration-through experiments of the agar stimulator. The experiment also use different ultrasound energy for 1 W/cm^2, 2 W/cm^2 and 3 W/cm^2, and the particle sizes of the microbubbles in the microbubble ultrasonic contrast agent are about 1.4 μm, 2.1 μm, and 3.5 μm. […] Then the microbubble ultrasonic contrast agent was washed away. The dye solution was placed in the perfusion zone and the ultrasound was applied for 15 minutes to force the dye diffused into the tissue simulator.

SMILES: Cc1cc(-c2ccc(/N=N/c3ccc4c(S(=O)(=O)O)cc(S(=O)(=O)O)c(N)c4c3O)c(C)c2)ccc1/N=N/c1ccc2c(S(=O)(=O)O)cc(S(=O)(=O)O)c(N)c2c1O [U only, Evans blue]
- penetration depth of the dye ([1]; ultrasound 1 W (1 W/cm^2)): 373 ± 23 μm
- penetration depth of the dye ([1]; ultrasound 2 W (2 W/cm^2)): 354 ± 14 μm
- penetration depth of the dye ([1]; ultrasound 3 W (3 W/cm^2)): 379 ± 20 μm
- penetration depth of the dye ([2]; ultrasound 1 W (1 W/cm^2)): 12.78 μm
- penetration depth of the dye ([2]; ultrasound 2 W (2 W/cm^2)): 14.17 μm
- penetration depth of the dye ([2]; ultrasound 3 W (3 W/cm^2)): 15.5 μm
